# In ChEMBL document CHEMBL4706675, “Ulmusakidian, a new coumarin glycoside and antifungal phenolic compounds from the root bark of Ulmus davidiana var. japonica” (2021):
# Active and inactive are the calls of the source. No cut-off for these calls is given here.
# Tested on: Candida albicans
# Test: Antifungal activity against Candida albicans assessed as fungal growth inhibition
# Format: functional, organism-based
row,SMILES,Activity
1,COc1cc(C[C@@H](CO)[C@H](COC2OC[C@@H](O)[C@H](O)[C@H]2O)Cc2cc(OC)c(O)c(OC)c2)cc(OC)c1O (stereo not given in full),inactive
2,COc1cc([C@@H]2Oc3c(OC)cc(CCCO)cc3[C@H]2CO)ccc1O[C@@H]1O[C@@H](C)[C@H](O)[C@@H](O)[C@H]1O,inactive
3,COc1cc(C(=O)OC[C@H]2O[C@@H](Oc3c(O)c(OC)cc4ccc(=O)oc34)[C@H](O)[C@@H](O)[C@@H]2O)ccc1O,inactive
4,COc1ccc(-c2cc(=O)c3c(OC)cc(OC)cc3o2)cc1,inactive
5,COc1cc(O)c2c(=O)c(O[C@@H]3O[C@@H](C)[C@H](O)[C@@H](O)[C@H]3O)c(-c3ccc(O)c(O)c3)oc2c1,inactive
6,COc1ccc(-c2oc3cc(OC)cc(OC)c3c(=O)c2OC)cc1,inactive
7,COc1cc2c(cc1O)[C@H](c1cc(OC)c(O)c(OC)c1)[C@@H](COC1OC[C@@H](O)[C@H](O)[C@H]1O)[C@H](CO)C2 (stereo not given in full),inactive
8,COc1cc([C@H]2c3cc(O)c(OC)cc3C[C@@H](CO)[C@@H]2COC2OC[C@@H](O)[C@H](O)[C@H]2O)ccc1O (stereo not given in full),inactive
9,COc1ccc(-c2cc(=O)c3c(O)cc(O)cc3o2)cc1,inactive
10,COc1cc(C(=O)OC[C@H]2O[C@@H](Oc3c(O)c(OC)cc4ccc(=O)oc34)[C@H](O)[C@@H](O)[C@@H]2O)cc(OC)c1O,inactive
